Source: patent US11098090B2, “Mycobacteria tuberculosis chaperonin 60.1 peptides and uses thereof” (Revolo Biotherapeutics Limited, priority 2017, dated 2021)
Entries after “also recorded” stand apart in the source; their conditions may differ. Where no end group is shown, it is not given here.

What was measured:
[1] = Plasma stability at 37° C., mouse plasma; assay type: in vitro ADME
Protocol: (§1) Plasma Stability in Mouse, Rat and Human Plasma at 37° C.
(§2) Plasma: mouse (C57 Black 6 Male), rat (Sprague Dawley) and human containing heparin as an anti-coagulant.
(§3) Plasma samples in duplicate were incubated with peptide at 3 μM in a 600 μl volume at 37° C. with shaking. 50 μl aliquots were withdrawn after 2, 5, 30, 60 and 120 mins and quenched into 150 μl of ice-cold methanol containing the internal standard (tolbutamide). Samples were stored at −20° C. for 2 hours to allow protein precipitation. Samples were then centrifuged at 2500×g and the resulting supernatants transferred to a 96 well plate for LC-MS/MS analysis. Thalf was calculated in all matrices for each peptide.

[2] = Plasma stability at 37° C., rat plasma; assay type: in vitro ADME
Protocol: as §1, §2, §3

[3] = Plasma stability at 37° C., human plasma; assay type: in vitro ADME
Protocol: as §1, §2, §3

[4] = tested on: LPS induced lung neutrophil influx; test: LPS mouse model of lung inflammation (BAL neutrophil count); assay type: in vivo; conditions: for efficacy against LPS induced lung neutrophil influx: 50 pg/mouse i.v.
[5] = Plasma stability, overall statements for mouse, rat and human plasma; assay type: in vitro ADME; conditions: for plasma stability / half-life (Th) compared with parent peptide SEQ ID NO: 17: rat and human plasma
Protocol: as §1, §2, §3

[6] = tested on: recruitment of eosinophils; conditions: animal model of allergic airway inflammation; from WO2009106819; cited from earlier work
[7] = Table 7, same conditions as Example 3, read-out: Plasma half life Mouse
[8] = Table 7, same conditions as Example 3, read-out: Plasma half life Rat
[9] = Table 7, same conditions as Example 3, read-out: Plasma half life Man
[10] = Table 4, read-out: Plasma half life Mouse
[11] = Table 4, read-out: Plasma half life Rat
[12] = Table 4, read-out: Plasma half life Man

## CC(C)C[C@H](NC(=O)CNC(=O)[C@H](N)Cc1c[nH]cn1)C(=O)N[C@@H](CC(N)=O)C(=O)N[C@H](C(=O)N[C@@H](CC(N)=O)C(=O)N[C@H](C(=O)N[C@@H](CC(C)C)C(=O)N[C@@H](CO)C(=O)N[C@@H](Cc1ccc(O)cc1)C(=O)NCC(=O)N[C@@H](CC(=O)O)C(N)=O)[C@@H](C)O)C(C)C [SEQ ID NO: 16, hGLNVNTLSYGD-NH2]
[1]; [7]
  half-life: 0.583 h
[2]; [8]
  half-life: 3.33 h
[3]; [9]
  half-life: 1.85 h

## H-DGSVVVNKVSEL-NH2 [SEQ ID NO: 3, DGSVVVNKVSEL-NH2]
[4]; dosed up to 60 mins prior to LPS challenge (FIG. 2)
  efficacy against LPS induced lung neutrophil influx: efficacious
[4]; dosed up to 120 mins post LPS challenge (FIG. 3)
  efficacy against LPS induced lung neutrophil influx: efficacious
[4]; dosed intravenously
  efficacy in the LPS mouse model: effective

## CC(C)C[C@H](NC(=O)CNC(=O)[C@H](N)Cc1c[nH]cn1)C(=O)N[C@@H](CC(N)=O)C(=O)N[C@H](C(=O)N[C@@H](CC(N)=O)C(=O)N[C@H](C(=O)N[C@@H](CC(C)C)C(=O)N[C@@H](CO)C(=O)N[C@@H](Cc1ccc(O)cc1)C(=O)NCC(=O)N[C@H](CC(=O)O)C(N)=O)[C@@H](C)O)C(C)C [SEQ ID NO: 14, hGLNVNTLSYGd-NH2]
[1]; [7]
  half-life: 0.833 h
[2]; [8]
  half-life: 2.55 h
[3]; [9]
  half-life: 2.58 h

## CC(=O)N[C@H](CC(=O)O)C(=O)NCC(=O)N[C@H](Cc1ccc(O)cc1)C(=O)N[C@H](CO)C(=O)N[C@H](CC(C)C)C(=O)N[C@@H](C(=O)N[C@H](CC(N)=O)C(=O)N[C@@H](C(=O)N[C@H](CC(N)=O)C(=O)N[C@H](CC(C)C)C(=O)NCC(=O)N[C@H](Cc1c[nH]cn1)C(N)=O)C(C)C)[C@H](C)O [SEQ ID NO: 19, Ac-dGysltnvnlGh-NH2]
[1]; [7]
  half-life: > 6 h
[2]; [8]
  half-life: > 6 h
[3]; [9]
  half-life: > 6 h
[5]
  plasma stability / half-life (Th) compared with parent peptide SEQ ID NO: 17: enhanced plasma stability

## H-GLNVNTLSYGDLAAD [SEQ ID NO: 23, GLNVNTLSYGDLAAD, reference compound]
[1]; [10]
  half-life: 1.03 h
[2]; [11]
  half-life: > 5.13 h
[3]; [12]
  half-life: > 5.62 h

## CC(C)C[C@H](NC(=O)CNC(=O)[C@@H](N)Cc1c[nH]cn1)C(=O)N[C@@H](CC(N)=O)C(=O)N[C@H](C(=O)N[C@@H](CC(N)=O)C(=O)N[C@H](C(=O)N[C@@H](CC(C)C)C(=O)N[C@@H](CO)C(=O)N[C@@H](Cc1ccc(O)cc1)C(=O)NCC(=O)N[C@@H](CC(=O)O)C(N)=O)[C@@H](C)O)C(C)C [SEQ ID NO: 17, HGLNVNTLSYGD-NH2]
[4]; different doses (0.5, 5 or 50 pg/mouse)
  effect on LPS induced lung neutrophil influx (number of neutrophils): reduction in the number of neutrophils
[1]; Table 3, 37° C., peptide 3 μM, read-out: Plasma Half Life (Th) Mouse
  half-life: 0.333 h
[2]; Table 3, 37° C., peptide 3 μM, read-out: Plasma Half Life (Th) Rat
  half-life: 0.717 h
[3]; Table 3, 37° C., peptide 3 μM, read-out: Plasma Half Life (Th) Man
  half-life: 1.2 h

## H-SELPAGHGLNVNTLS [SEQ ID NO: 5, SELPAGHGLNVNTLS]
[1]; [10]
  half-life: 0.2 h
[2]; [11]
  half-life: 1.32 h
[3]; [12]
  half-life: 1.85 h

## H-DGSVVVNKVSELPAGHGLNVNTLSYGDLAAD [SEQ ID NO: 1, reference compound]
[4]; dosed intravenously immediately prior to LPS challenge
  inhibition of LPS induced lung neutrophil influx: significant inhibition; also recorded: only demonstrates efficacy when dosed immediately prior to LPS challenge
[4]; i.v., given at earlier (FIG. 1) or later (FIG. 4) time points than LPS challenge
  activity against LPS induced lung neutrophil influx: looses its activity
[6]
  recruitment of eosinophils: significantly reduce the recruitment of eosinophils

## CC(C)C[C@@H]1NC(=O)CNC(=O)[C@H](Cc2c[nH]cn2)NC(=O)[C@H](CC(=O)O)NC(=O)CNC(=O)[C@H](Cc2ccc(O)cc2)NC(=O)[C@H](CO)NC(=O)[C@H](CC(C)C)NC(=O)[C@H]([C@@H](C)O)NC(=O)[C@H](CC(N)=O)NC(=O)[C@H](C(C)C)NC(=O)[C@H](CC(N)=O)NC1=O [SEQ ID NO: 25, cyclic-HGLNVNTLSYGD-]
[1]; [7]
  half-life: 0.167 h
[2]; [8]
  half-life: 0.35 h
[3]; [9]
  half-life: 0.75 h
[5]
  plasma stability / half-life (Th) compared with parent peptide SEQ ID NO: 17: did not improve plasma stability

## H-SELPAGHGLNVNTLSYGDLAAD [SEQ ID NO: 4]
[4]; 0.5, 5 and 500 pg/dose (FIG. 7)
  in vivo efficacy in the mouse LPS lung inflammation model: maintained in vivo efficacy
[1]; Table 5, read-out: Plasma half-life Mouse
  half-life: > 6 h
[2]; Table 5, read-out: Plasma half-life Rat
  half-life: > 6 h
[3]; Table 5, read-out: Plasma half-life Man
  half-life: > 6 h
[5]; rat and human plasma (Table 5 vs Table 4)
  plasma half-life compared with fragment 3 (SEQ ID NO: 5): superior half-life

## CC(=O)N[C@H](Cc1c[nH]cn1)C(=O)NCC(=O)N[C@H](CC(C)C)C(=O)N[C@H](CC(N)=O)C(=O)N[C@@H](C(=O)N[C@H](CC(N)=O)C(=O)N[C@@H](C(=O)N[C@H](CC(C)C)C(=O)N[C@H](CO)C(=O)N[C@H](Cc1ccc(O)cc1)C(=O)NCC(=O)N[C@H](CC(=O)O)C(N)=O)[C@H](C)O)C(C)C [SEQ ID NO: 20, Ac-hGlnvntlsyGd-NH2]
[1]; [7]
  half-life: > 6 h
[2]; [8]
  half-life: 3.03 h
[3]; [9]
  half-life: > 6 h
[5]
  plasma stability / half-life (Th) compared with parent peptide SEQ ID NO: 17: enhanced plasma stability

## CC(C)C[C@H](NC(=O)CNC(=O)[C@@H](N)Cc1c[nH]cn1)C(=O)N[C@@H](CC(N)=O)C(=O)N[C@H](C(=O)N[C@@H](CC(N)=O)C(=O)N[C@H](C(=O)N[C@@H](CC(C)C)C(=O)N[C@@H](CO)C(=O)N[C@@H](Cc1ccc(O)cc1)C(=O)NCC(=O)N[C@H](CC(=O)O)C(N)=O)[C@@H](C)O)C(C)C [SEQ ID NO: 15, HGLNVNTLSYGd-NH2]
[1]; [7]
  half-life: 0.65 h
[2]; [8]
  half-life: 3.03 h
[3]; [9]
  half-life: 1.4 h
